Where “and” joins values, the source holds several entries; their conditions need not be identical. Equal values may be shown once. Numbered stars: 1 amine (or outer) side, 2 acyl side, 3 side chain; on linkers, the order of the positions; unused ones are H or OH. Bridge positions count the residues as written; N and C are the ends. Square brackets hold non-standard residues; d marks the D form. Peptide text beside a SMILES is read from it. I, II: the chains in the order shown. Actinocin(9to1) = Cc1c2oc3c(C)ccc(C(=O)[*:1])c3nc-2c(C(=O)[*:2])c(N)c1=O; NMeV = CN[C@H](C(=O)O)C(C)C; Sar = CNCC(=O)O
conditions: pampa; 60.0 min; 50.0 µM

SMILES	Papp
CC(=O)N1CCN(C(=O)c2ccc(-c3ncc4cnc(-c5cccc(F)c5)cn34)cc2)CC1	< 1 ×10⁻⁶ cm/s
O=C(Nc1ccccc1)N1CCC(Cc2cnc3ccccc3c2)CC1	> 300 ×10⁻⁶ cm/s
Nc1ncnc2c1ncn2[C@H]1O[C@@H](CSCC[C@@H](N)C(=O)O)[C@H](O)[C@@H]1O	< 1 ×10⁻⁶ cm/s
Cn1c2cc(C=O)sc2c2cnn(Cc3ccccc3F)c(=O)c21	270 ×10⁻⁶ cm/s
CC(=O)Nc1c(I)c(C(=O)N[C@H]2C(O)O[C@H](CO)[C@@H](O)[C@@H]2O)c(I)c(N(C)C(C)=O)c1I (stereo partly drawn)	2 ×10⁻⁶ cm/s
CC[C@@]1(O)C(=O)OCc2c1cc1n(c2=O)Cc2cc3c(CN(C)C)c(O)ccc3nc2-1	1.37 ×10⁻⁶ cm/s
CN(C)C(=O)NC1CCC(CCN2CCN(c3cccc(Cl)c3Cl)CC2)CC1 (stereo not drawn)	100 ×10⁻⁶ cm/s
C[C@@H]1COCCN1c1cc(C2(S(C)(=N)=O)CC2)nc(-c2ccnc3[nH]ccc23)n1 (stereo partly drawn)	33 ×10⁻⁶ cm/s
CO/S(=N\S(=O)(=O)c1ccc(Cl)cc1)c1ccc([N+](=O)[O-])cc1 (stereo not drawn)	4 ×10⁻⁶ cm/s
CN1N=C2CCN(C(=O)[C@H](COCc3ccccc3)NC(=O)C(C)(C)N)C[C@]2(Cc2ccccc2)C1=O	15 ×10⁻⁶ cm/s
CCOC(CCCn1cnc2c(c(-c3ccccc3)c(-c3ccccc3)n2CCc2ccccc2)c1=N)OCC	< 1 ×10⁻⁶ cm/s
NC1CCN(C(=O)C2CCCN(c3nc(-c4ccccc4)nc4c3CCC4)C2)CC1 (stereo not drawn)	179 ×10⁻⁶ cm/s
NC(=O)C1=C(O)[C@@]2(O)C(=O)C3=C(O)c4c(O)cccc4C[C@H]3C[C@H]2CC1=O	9 ×10⁻⁶ cm/s
N=c1c2c(-c3ccccc3)c(-c3ccccc3)n(Cc3ccccc3)c2ncn1Cc1ccc2c(c1)OCO2	3 ×10⁻⁶ cm/s
CCO[C@@H]1OC(=O)C[C@@H]1NC(=O)[C@@H]1CCCN2C(=O)CC[C@H](NC(=O)c3nccc4ccccc34)C(=O)N12	< 1 ×10⁻⁶ cm/s
CC(C)C[C@H]1C(=O)O[C@H](Cc2ccc(N3CCOCC3)cc2)C(=O)N(C)[C@@H](CC(C)C)C(=O)O[C@H](C)C(=O)N(C)[C@@H](CC(C)C)C(=O)O[C@H](Cc2ccc(N3CCOCC3)cc2)C(=O)N(C)[C@@H](CC(C)C)C(=O)O[C@H](C)C(=O)N1C	< 1 ×10⁻⁶ cm/s
C=CCN1CC[C@]23c4c5ccc(O)c4O[C@H]2[C@@H](OCCOCCOCCOCCOCCOCCOCCOC)CC[C@@]3(O)[C@H]1C5	< 1 ×10⁻⁶ cm/s
CSc1nc(N)cc(Oc2ccc(-c3nc(Nc4cccc(C(F)(F)F)c4)n[nH]3)cc2)n1	53.8 ×10⁻⁶ cm/s
COc1cc(/C=C/C(=O)NCCn2c(C(F)(F)F)cc3ccccc32)cc(OC)c1OC	> 300 ×10⁻⁶ cm/s
N[C@@H](Cc1ccc(N(CCCl)CCCl)cc1)C(=O)O	131 ×10⁻⁶ cm/s
N=c1c2c(-c3ccccc3)cn(Cc3ccccc3)c2ncn1CCO	113 ×10⁻⁶ cm/s
COC1CC(=C(c2cccs2)c2cccs2)C[N+](C)(C)C1 (stereo not drawn)	< 1 ×10⁻⁶ cm/s

SMILES	Papp
N=c1c2c(-c3ccccc3)c(-c3ccccc3)n(CCc3ccccc3)c2ncn1C1CCN(Cc2ccccc2)CC1	14 ×10⁻⁶ cm/s
NCCc1ccc(O)c(O)c1	< 1 ×10⁻⁶ cm/s
CC1=C(C(=O)O)N2C(=O)C(NC(=O)C(N)C3=CCC=CC3)C2SC1 (stereo not drawn)	< 1 ×10⁻⁶ cm/s
CN(C)c1cc2c(cc1Sc1nc3c(N)nccc3n1CCNCC(C)(C)C)OCO2	20 ×10⁻⁶ cm/s
Cn1nnnc1Sc1ncnc2scc(-c3ccc(C#N)cc3)c12	63 ×10⁻⁶ cm/s
NCC1(CC(=O)O)CCCCC1	< 1 ×10⁻⁶ cm/s
CC(C)CNc1ccnc(NCc2csc(-c3ccccc3)n2)n1	228 ×10⁻⁶ cm/s
O=C(O)C1CCc2cc(C3CCCCC3)c(Cl)cc21 (stereo not drawn)	61 ×10⁻⁶ cm/s
Cn1nnnc1Sc1ncnc2scc(-c3ccc(C(=O)OC(C)(C)C)cc3)c12	72 ×10⁻⁶ cm/s
COC(=O)C[C@@H](C(=O)OC)n1cnc2c(c(-c3ccccc3)cn2Cc2ccccc2)c1=N	26 ×10⁻⁶ cm/s
Nc1nc(/C(=C/CC(=O)O)C(=O)N[C@@H]2C(=O)N3C(C(=O)O)=CCS[C@H]23)cs1	18 ×10⁻⁶ cm/s
COCCNC(=O)c1ccc(-c2ncc3cnc(-c4cccc(F)c4)cn23)cc1	95 ×10⁻⁶ cm/s
Cc1cc(C)nc(NC(=S)N2CCN(c3ccc(C(F)(F)F)cn3)CC2)c1	137 ×10⁻⁶ cm/s
OCCCCC#Cc1cncc(OC[C@@H]2CCN2)c1	< 1 ×10⁻⁶ cm/s
COCCNCCCn1c(C(=O)CF)c(-c2ccc(C)cc2)c2c(N)ncnc21	20 ×10⁻⁶ cm/s
O=C(NCCCO)c1ccc(-c2ncc3cnc(-c4cccc(F)c4)cn23)cc1	46 ×10⁻⁶ cm/s
CC1=C(C(=O)O)N2C(=O)[C@@H](N)[C@H]2SC1	< 1 ×10⁻⁶ cm/s
CC(=O)Nc1ccc(C(=O)NC(C)(C)C)cc1	2 ×10⁻⁶ cm/s
Cc1oc(=O)oc1COC(=O)N1CC[C@@H](N2CC/C(=C\C3=C(C(=O)O)N4C(=O)[C@@H](NC(=O)/C(=N/O)c5nsc(N)n5)[C@H]4SC3)C2=O)C1	3 ×10⁻⁶ cm/s
COc1cccc(-c2csc3ncnc(Sc4nnnn4C)c23)c1	219 ×10⁻⁶ cm/s
CC1=C(/C=C/C(C)=C/C=C/C(C)=C/C(=O)O)C(C)(C)CCC1	< 1 ×10⁻⁶ cm/s
Cn1nnnc1Sc1ncnc2scc(-c3cccc(Cl)c3)c12	134 ×10⁻⁶ cm/s

SMILES	Papp
CC(C)C[C@H](CO)Nc1nc(S[C@@H](C)c2ccccc2)nc2nc(N)sc12	244 ×10⁻⁶ cm/s
Cc1cc(-c2nc(C(=O)Nc3cn(C4CCOCC4)nc3C(N)=O)co2)ccn1	43 ×10⁻⁶ cm/s
CN(C)CCn1nnnc1SCC1=C(C(=O)O)N2C(=O)[C@@H](NC(=O)Cc3csc(N)n3)[C@H]2SC1	6 ×10⁻⁶ cm/s
O=C(NCCO)c1cc(C(=O)NCCO)cc(C(=O)NCCO)c1	< 1 ×10⁻⁶ cm/s
CC(C)NC(=O)COc1cccc(-c2nc(Nc3ccc4[nH]ncc4c3)c3ccccc3n2)c1	226 ×10⁻⁶ cm/s
C=CC1=C(C(=O)O)N2C(=O)[C@@H](NC(=O)/C(=N\OCC(=O)O)c3csc(N)n3)[C@H]2SC1	2 ×10⁻⁶ cm/s
Cc1onc(-c2c(Cl)cccc2Cl)c1CC(=O)NCc1ccc(OCC(F)(F)F)nc1	204 ×10⁻⁶ cm/s
O=C(NCc1cnccn1)c1ccc(-c2ncc3cnc(-c4cccc(F)c4)cn23)cc1	94 ×10⁻⁶ cm/s
Cn1nnnc1SCC1=C(C(=O)O)N2C(=O)[C@@H](NC(=O)[C@H](OC=O)c3ccccc3)[C@H]2SC1	< 1 ×10⁻⁶ cm/s
N=c1c2c(-c3ccccc3)cn(Cc3ccc(Br)cc3)c2ncn1CCCN1CCN(c2ccccc2)CC1	151 ×10⁻⁶ cm/s
N=c1c2c(-c3ccccc3)cn(Cc3ccccc3)c2ncn1CCCCO	110 ×10⁻⁶ cm/s
CC(=O)O[C@H]1C[C@@H](C)O[C@H]2O[C@@H]3CC4CC[C@@H]5C(CC[C@]6(C)[C@@H](C7=CC(=O)OC7)CC[C@]56O)[C@@]4(C=O)C[C@H]3O[C@]21O (stereo partly drawn)	54 ×10⁻⁶ cm/s
COc1cc2c(Nc3ccc(Cl)c(Cl)c3F)ncnc2cc1OCC1C[C@@H]2CN(C)C[C@@H]2C1 (stereo partly drawn)	> 300 ×10⁻⁶ cm/s
CC(C)N(C[C@H]1O[C@@H](n2cnc3c(N)ncnc32)[C@H](O)[C@@H]1O)C1CC(CCc2nc3ccc(C(C)(C)C)cc3[nH]2)C1 (stereo partly drawn)	< 1 ×10⁻⁶ cm/s
N=c1c2c(-c3ccccc3)c(-c3ccccc3)n(Cc3ccccc3)c2ncn1CC1CCCO1 (stereo not drawn)	207 ×10⁻⁶ cm/s
COC(=O)c1ccccc1O[C@@H]1O[C@H](CO[C@@H]2OC[C@@H](O)[C@H](O)[C@H]2O)[C@@H](O)[C@H](O)[C@H]1O	< 1 ×10⁻⁶ cm/s
CCOC(CCCn1cnc2c(c(-c3ccccc3)c(-c3ccccc3)n2Cc2ccccc2)c1=N)OCC	228 ×10⁻⁶ cm/s
C[C@@]12CCCCC[C@@H](Cc3ccc(O)cc31)[C@H]2N	74 ×10⁻⁶ cm/s
Cc1cccc(NC(=O)c2ccc(C(F)(F)F)cc2C(=O)O)n1	< 1 ×10⁻⁶ cm/s
CCN1CCN(C(=O)c2ccc3c(c2)N(Cc2cc(C)ccc2C)C(=O)c2ccccc2S3(=O)=O)CC1	63 ×10⁻⁶ cm/s
c1ccc(CNCCNCc2ccccc2)cc1	107 ×10⁻⁶ cm/s
N=c1c2c(-c3ccccc3)c(-c3ccccc3)n(CCc3ccccc3)c2ncn1CCCCO	218 ×10⁻⁶ cm/s

SMILES	Papp
CCN(CC)CCCC(C)Nc1ccnc2cc(Cl)ccc12 (stereo not drawn)	8 ×10⁻⁶ cm/s
CN(C)CCN(C)C(=O)c1ccc(-c2ncc3cnc(-c4cccc(F)c4)cn23)cc1	90 ×10⁻⁶ cm/s
C[C@@H]1C[C@@H](O)[C@]2(O)O[C@@H]3C[C@@]4(C=O)C(CC[C@@H]5C4CC[C@]4(C)[C@@H](C6=CC(=O)OC6)CC[C@]54O)C[C@H]3O[C@@H]2O1 (stereo partly drawn)	< 1 ×10⁻⁶ cm/s
CCn1c(C(=O)N(C2CC2)C2CC2)cc2c3c(ncn3C)c(Nc3cc(C)n(C)n3)nc21	31 ×10⁻⁶ cm/s
COCC1=C(C(=O)O)N2C(=O)[C@@H](NC(=O)/C(=N\OC)c3csc(N)n3)[C@H]2SC1	< 1 ×10⁻⁶ cm/s
CO[C@H]1/C=C\C=C(\C)C(=O)NC2=CC(=O)C(NCCN(C)C)=C(C[C@@H](C)C[C@H](OC)[C@H](O)[C@@H](C)/C=C(/C)[C@@H]1OC(N)=O)C2=O	11.9 ×10⁻⁶ cm/s
Cc1c2oc3c(C)ccc(C(=O)N[C@@H]4C(=O)N[C@H](C(C)C)C(=O)N5CCC[C@H]5C(=O)N(C)CC(=O)N(C)[C@@H](C(C)C)C(=O)O[C@@H]4C)c3nc-2c(C(=O)N[C@@H]2C(=O)N[C@H](C(C)C)C(=O)N3CCC[C@H]3C(=O)N(C)CC(=O)N(C)[C@@H](C(C)C)C(=O)O[C@@H]2C)c(N)c1=O (I: T[dV]P[Sar][NMeV] / II: T[dV]P[Sar][NMeV]; ester I:1-I:C, II:1-II:C; linker I:N-II:N via Actinocin(9to1))	6 ×10⁻⁶ cm/s and 13 ×10⁻⁶ cm/s
C/C(=C\c1csc(C)n1)[C@@H]1C[C@@H]2O[C@]2(C)CCC[C@H](C)[C@H](O)[C@@H](C)C(=O)C(C)(C)[C@@H](O)CC(=O)N1	1.7 ×10⁻⁶ cm/s
CCN(CC)CCNc1ccc(C)c2sc3ccccc3c(=O)c12	> 300 ×10⁻⁶ cm/s
NC(=O)c1ccc(-c2ncc3cnc(-c4cccc(F)c4)cn23)cc1	242 ×10⁻⁶ cm/s
O=C1[C@H](CC[C@H](O)c2ccc(F)cc2)[C@@H](c2ccc(O)cc2)N1c1ccc(F)cc1	< 1 ×10⁻⁶ cm/s
CO/N=C(/C(=O)N[C@@H]1C(=O)N2C(C(=O)O)=CCS[C@H]12)c1csc(N)n1	< 1 ×10⁻⁶ cm/s
NC(=O)[C@H](Cc1ccccc1)NC(=O)[C@H](Cc1ccccc1)NC(=O)[C@@H]1CCCN1C(=O)[C@@H](N)Cc1ccc(O)cc1	< 1 ×10⁻⁶ cm/s
Cc1cc(=O)c(C(=O)N[C@@H](C(=O)N[C@@H]2C(=O)N3C(C(=O)O)=C(CSc4nnnn4C)CS[C@H]23)c2ccc(O)cc2)c[nH]1	< 1 ×10⁻⁶ cm/s
CC(=O)OCC1=C(C(=O)O)N2C(=O)[C@@H](N)[C@H]2SC1	< 1 ×10⁻⁶ cm/s
Nc1ncnc2c1ncn2CCNCCCCCO	< 1 ×10⁻⁶ cm/s
CCC1C(C)=NN=C(c2ccc(OC)c(OC)c2)c2cc(OC)c(OC)cc21 (stereo not drawn)	91 ×10⁻⁶ cm/s
CNC(=O)c1cc(Oc2ccc(NC(=O)Nc3cc(C(C)(C)C)nn3-c3ccc4ncccc4c3)c(F)c2)ccn1	210 ×10⁻⁶ cm/s
CCC(=O)O[C@@H](OP(=O)(CCCCc1ccccc1)CC(=O)N1C[C@H](C2CCCCC2)C[C@H]1C(=O)O)C(C)C (stereo partly drawn)	118 ×10⁻⁶ cm/s
CC(=O)Nc1ccc(OC(=O)c2ccccc2OC(C)=O)cc1	27 ×10⁻⁶ cm/s
O=C(c1ccc(-c2ncc3cnc(-c4cccc(F)c4)cn23)cc1)N1CC(O)C1	27 ×10⁻⁶ cm/s
O=C(NC1CCC(O)CC1)c1ccc(-c2ncc3cnc(-c4cccc(F)c4)cn23)cc1 (stereo not drawn)	59 ×10⁻⁶ cm/s
